The record followed here is ChEMBL document CHEMBL1201862, “PubChem BioAssay data set” (2004).

Calls of active or inactive are those of the source.

One series has as its target T1, Cytochrome P450 1A2 (Homo sapiens, UniProt P05177).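 Also: PubChem cytochrome P450 panel assay, CYP1A2 panel member.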
T1 sequence (P05177 whole entry): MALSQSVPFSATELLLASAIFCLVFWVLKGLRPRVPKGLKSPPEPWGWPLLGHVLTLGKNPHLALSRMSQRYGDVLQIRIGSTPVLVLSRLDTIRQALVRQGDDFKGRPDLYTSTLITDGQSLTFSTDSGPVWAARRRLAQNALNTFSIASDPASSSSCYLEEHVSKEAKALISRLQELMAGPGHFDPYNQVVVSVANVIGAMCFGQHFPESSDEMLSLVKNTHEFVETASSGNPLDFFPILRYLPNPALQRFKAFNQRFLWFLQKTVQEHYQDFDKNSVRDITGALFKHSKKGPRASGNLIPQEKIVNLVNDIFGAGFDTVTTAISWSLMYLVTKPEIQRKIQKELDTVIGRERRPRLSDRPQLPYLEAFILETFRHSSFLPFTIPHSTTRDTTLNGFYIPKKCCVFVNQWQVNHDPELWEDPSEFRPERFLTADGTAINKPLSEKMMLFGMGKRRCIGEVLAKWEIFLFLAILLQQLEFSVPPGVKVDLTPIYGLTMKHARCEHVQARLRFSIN

Series [1] deals with T2, Cytochrome P450 2C9 (Homo sapiens, UniProt P11712).
T2 sequence (P11712 whole entry): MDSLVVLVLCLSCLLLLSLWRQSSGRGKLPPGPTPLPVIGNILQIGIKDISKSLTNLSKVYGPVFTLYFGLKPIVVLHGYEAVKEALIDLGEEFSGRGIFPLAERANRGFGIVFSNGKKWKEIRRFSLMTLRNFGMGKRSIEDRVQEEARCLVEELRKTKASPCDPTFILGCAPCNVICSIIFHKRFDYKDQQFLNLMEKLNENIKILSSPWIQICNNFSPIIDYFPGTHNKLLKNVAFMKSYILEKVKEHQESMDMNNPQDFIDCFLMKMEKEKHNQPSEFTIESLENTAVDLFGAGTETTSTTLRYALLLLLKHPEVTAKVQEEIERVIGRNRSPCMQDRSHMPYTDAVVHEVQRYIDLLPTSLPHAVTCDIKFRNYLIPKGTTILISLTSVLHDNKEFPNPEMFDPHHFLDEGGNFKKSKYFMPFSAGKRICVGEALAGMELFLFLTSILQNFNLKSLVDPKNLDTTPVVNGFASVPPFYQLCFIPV
The target of series [2] is Dual specificity tyrosine-phosphorylation-regulated kinase 1A (Rattus norvegicus, UniProt Q63470). Type of series: biochemical, Homo sapiens.
Series [3] has as its system HEK293. Kind of series: inhibitors of LMP1-driven NF-kB reporter, dose response, cell-based, HEK293, luciferase, cherry-pick (AID 588343). Type of series: functional. The following applies: Homo sapiens.
Series [4] has as its target Mitogen-activated protein kinase 10 (Homo sapiens, UniProt P53779). Kind of series: Dose response biochemical screening assay for inhibitors of c-Jun N-Terminal Kinase 3 (JNK3). [Related pubchem assays: 746 ].
Series [5] concerns the target FAD-linked sulfhydryl oxidase ALR (Homo sapiens, UniProt P55789). Kind of series: inhibitors of human ALR sulfhydryl oxidase, dose response, biochemical, H2O2 detection, luminescence, cherry-pick (AID 493248).
A further series concerns the target Cytochrome P450 2C19 (Homo sapiens, UniProt P33261). Kind of series: Cytochrome panel assay with activity outcomes. Panel member name: p450-cyp2c19 Compounds with AC50 equal or less than 10 uM are considered active. In kind it is functional. The following applies: read-out: AC50.
The target of a further series is Cytochrome P450 3A4 (Homo sapiens, UniProt P08684).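 Also: CYP3A4 tested as one member of a cytochrome P450 panel screen.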
The target in series [6] is Heat shock protein HSP 90-alpha (Homo sapiens, UniProt P07900). In kind it is functional, organism-based.
The next series deals with Large T antigen (Simian virus 40, UniProt P03070). Type of series: functional, Betapolyomavirus macacae.
The target in series [7] is T3, Fatty acid synthase (Homo sapiens, UniProt P49327). Kind of series: FAS thioesterase domain inhibitors, dose response, biochemical, kinetic fluorescence intensity (AID 624326).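 Also: rate of fluorescence rise from hydrolysis of a fluorogenic O-methyl fluorescein ester substrate.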 In kind it is functional.
T3 sequence (P49327 whole entry, the tested form may be a part): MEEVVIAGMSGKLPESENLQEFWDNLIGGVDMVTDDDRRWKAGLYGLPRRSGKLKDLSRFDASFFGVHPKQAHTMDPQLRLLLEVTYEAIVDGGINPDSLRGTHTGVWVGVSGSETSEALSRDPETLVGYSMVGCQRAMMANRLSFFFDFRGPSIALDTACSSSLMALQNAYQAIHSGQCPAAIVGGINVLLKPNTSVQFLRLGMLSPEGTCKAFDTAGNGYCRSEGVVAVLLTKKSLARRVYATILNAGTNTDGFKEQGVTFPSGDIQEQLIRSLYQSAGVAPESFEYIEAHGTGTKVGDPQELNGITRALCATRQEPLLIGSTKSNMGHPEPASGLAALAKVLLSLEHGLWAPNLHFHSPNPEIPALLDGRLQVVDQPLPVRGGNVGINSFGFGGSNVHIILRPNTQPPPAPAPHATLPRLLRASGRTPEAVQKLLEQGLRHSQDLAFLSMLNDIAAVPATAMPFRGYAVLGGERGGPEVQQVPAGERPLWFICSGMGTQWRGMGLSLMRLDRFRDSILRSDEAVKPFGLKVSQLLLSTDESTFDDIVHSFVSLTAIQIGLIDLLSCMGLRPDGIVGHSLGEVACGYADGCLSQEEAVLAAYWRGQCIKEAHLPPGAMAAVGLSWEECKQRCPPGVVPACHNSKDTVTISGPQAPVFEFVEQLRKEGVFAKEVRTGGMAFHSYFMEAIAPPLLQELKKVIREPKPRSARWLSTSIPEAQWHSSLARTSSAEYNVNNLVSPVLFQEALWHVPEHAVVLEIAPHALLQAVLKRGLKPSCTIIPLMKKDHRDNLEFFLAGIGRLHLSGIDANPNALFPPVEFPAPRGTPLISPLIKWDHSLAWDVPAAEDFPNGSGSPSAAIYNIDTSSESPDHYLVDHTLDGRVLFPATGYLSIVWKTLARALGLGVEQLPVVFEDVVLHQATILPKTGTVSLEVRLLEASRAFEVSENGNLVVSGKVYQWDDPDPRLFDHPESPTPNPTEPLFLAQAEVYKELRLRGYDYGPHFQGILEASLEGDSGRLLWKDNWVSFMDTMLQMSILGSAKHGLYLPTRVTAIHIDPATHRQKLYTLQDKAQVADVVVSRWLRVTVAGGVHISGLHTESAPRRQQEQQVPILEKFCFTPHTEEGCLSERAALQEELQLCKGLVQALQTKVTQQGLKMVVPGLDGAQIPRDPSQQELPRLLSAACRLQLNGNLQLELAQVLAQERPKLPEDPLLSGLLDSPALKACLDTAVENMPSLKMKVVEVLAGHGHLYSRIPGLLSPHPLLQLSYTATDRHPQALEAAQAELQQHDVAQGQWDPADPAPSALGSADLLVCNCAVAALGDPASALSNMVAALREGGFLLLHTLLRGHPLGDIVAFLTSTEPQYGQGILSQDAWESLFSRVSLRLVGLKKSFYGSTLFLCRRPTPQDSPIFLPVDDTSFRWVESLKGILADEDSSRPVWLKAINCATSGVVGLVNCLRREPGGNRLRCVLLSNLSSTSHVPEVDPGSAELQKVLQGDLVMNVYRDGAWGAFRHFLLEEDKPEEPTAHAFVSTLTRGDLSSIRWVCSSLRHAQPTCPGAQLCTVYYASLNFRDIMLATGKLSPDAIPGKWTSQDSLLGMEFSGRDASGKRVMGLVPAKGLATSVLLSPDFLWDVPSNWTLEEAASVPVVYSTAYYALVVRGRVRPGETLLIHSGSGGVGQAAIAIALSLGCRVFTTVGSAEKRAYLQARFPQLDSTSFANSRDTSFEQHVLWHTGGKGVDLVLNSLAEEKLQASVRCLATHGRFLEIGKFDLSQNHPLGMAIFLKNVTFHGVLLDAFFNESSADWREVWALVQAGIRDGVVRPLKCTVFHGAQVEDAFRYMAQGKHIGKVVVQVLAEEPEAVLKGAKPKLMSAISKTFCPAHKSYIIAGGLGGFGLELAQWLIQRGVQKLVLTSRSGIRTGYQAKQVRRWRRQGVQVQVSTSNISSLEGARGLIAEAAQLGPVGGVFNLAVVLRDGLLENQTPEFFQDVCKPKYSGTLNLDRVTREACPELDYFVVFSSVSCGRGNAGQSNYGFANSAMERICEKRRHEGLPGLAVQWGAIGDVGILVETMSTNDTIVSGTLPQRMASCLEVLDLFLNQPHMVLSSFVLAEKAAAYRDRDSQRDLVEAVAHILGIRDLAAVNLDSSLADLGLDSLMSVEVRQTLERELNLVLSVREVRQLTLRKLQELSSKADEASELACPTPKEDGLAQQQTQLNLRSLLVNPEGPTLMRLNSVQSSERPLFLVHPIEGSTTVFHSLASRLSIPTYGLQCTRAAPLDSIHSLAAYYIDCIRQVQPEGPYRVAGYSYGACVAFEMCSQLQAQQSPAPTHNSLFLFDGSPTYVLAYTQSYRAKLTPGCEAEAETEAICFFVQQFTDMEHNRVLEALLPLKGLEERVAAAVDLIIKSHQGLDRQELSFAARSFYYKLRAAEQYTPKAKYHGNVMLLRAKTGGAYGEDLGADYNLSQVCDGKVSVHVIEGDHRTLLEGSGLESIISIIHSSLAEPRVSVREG
Series [8] deals with T3, Fatty acid synthase. Kind of series: FAS thioesterase domain inhibitors, dose response, biochemical, endpoint fluorescence intensity, uHTS hits (AID 624327).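 Also: fluorescence from hydrolysis of an O-methyl fluorescein acyl ester substrate by the enzyme.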 In kind it is functional.
For another series, the target named is Cytochrome P450 2D6 (Homo sapiens, UniProt P10635).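 Also: CYP2D6 member of a cytochrome P450 panel assay.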
Sequence of Cytochrome P450 2D6 (P10635 whole entry): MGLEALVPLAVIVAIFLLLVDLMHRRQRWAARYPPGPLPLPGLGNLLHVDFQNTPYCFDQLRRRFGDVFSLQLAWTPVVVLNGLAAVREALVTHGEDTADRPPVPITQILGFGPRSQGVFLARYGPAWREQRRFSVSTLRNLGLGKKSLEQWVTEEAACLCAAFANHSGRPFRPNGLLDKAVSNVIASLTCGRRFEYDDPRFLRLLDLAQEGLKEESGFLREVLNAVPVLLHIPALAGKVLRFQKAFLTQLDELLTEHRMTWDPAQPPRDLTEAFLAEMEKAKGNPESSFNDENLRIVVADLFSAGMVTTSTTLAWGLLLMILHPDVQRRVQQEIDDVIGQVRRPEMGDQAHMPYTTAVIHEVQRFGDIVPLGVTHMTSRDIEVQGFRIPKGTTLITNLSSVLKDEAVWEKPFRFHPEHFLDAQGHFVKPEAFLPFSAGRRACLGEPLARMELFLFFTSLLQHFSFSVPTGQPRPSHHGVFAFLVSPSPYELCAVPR
For another series, the target named is T4, Hexokinase HKDC1 (Homo sapiens, UniProt Q2TB90).
T4 sequence (Q2TB90 whole entry): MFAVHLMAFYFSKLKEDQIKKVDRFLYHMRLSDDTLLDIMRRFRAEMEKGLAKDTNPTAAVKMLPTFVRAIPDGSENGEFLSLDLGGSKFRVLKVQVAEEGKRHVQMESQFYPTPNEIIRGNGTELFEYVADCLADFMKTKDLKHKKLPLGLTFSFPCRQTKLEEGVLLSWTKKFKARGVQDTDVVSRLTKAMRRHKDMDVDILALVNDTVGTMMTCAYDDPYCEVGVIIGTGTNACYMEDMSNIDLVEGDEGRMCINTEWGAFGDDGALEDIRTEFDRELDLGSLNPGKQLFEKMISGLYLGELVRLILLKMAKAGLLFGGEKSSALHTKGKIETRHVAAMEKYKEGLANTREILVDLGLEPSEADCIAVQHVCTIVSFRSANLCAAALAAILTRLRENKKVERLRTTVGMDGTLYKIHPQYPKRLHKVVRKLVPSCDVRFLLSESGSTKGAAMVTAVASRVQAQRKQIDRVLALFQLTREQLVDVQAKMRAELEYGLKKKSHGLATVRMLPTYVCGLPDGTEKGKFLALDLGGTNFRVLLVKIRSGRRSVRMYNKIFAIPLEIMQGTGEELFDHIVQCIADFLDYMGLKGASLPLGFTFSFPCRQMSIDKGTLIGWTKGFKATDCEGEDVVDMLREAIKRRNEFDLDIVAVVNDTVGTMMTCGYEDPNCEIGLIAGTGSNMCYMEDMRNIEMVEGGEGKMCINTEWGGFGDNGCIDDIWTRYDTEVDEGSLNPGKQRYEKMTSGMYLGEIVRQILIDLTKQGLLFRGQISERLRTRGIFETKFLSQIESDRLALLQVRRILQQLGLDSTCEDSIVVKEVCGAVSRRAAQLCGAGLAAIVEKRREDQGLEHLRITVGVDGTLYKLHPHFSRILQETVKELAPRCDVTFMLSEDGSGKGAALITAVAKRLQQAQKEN
Kind of series: HKDC1 hexokinase inhibitors, dose response, biochemical, W721R variant (AID 504729). In kind it is functional.

Series [9] deals with T2, Cytochrome P450 2C9. The source holds these as a separate data set.
Series [10] can be described thus: HepG2 cell cytotoxicity, dose response, cytotoxicity control for Shn3 inhibitor project, CellTiter-Glo, cherry-picked (AID 624134). In kind it is functional, cell-based.
The nature of series [11]: Shn3 3'UTR reporter inhibitors, dose response, cell-based, Clone20 osteoblasts, firefly luciferase, cherry-picked (AID 624132).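 Also: firefly luciferase luminescence from reporter carrying the Shn3 3'UTR in osteoblasts.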 In kind it is functional.
For series [12], the target named is Induced myeloid leukemia cell differentiation protein Mcl-1 (Homo sapiens, UniProt Q07820). In kind it is functional.
Sequence of Induced myeloid leukemia cell differentiation protein Mcl-1 (Q07820 whole entry): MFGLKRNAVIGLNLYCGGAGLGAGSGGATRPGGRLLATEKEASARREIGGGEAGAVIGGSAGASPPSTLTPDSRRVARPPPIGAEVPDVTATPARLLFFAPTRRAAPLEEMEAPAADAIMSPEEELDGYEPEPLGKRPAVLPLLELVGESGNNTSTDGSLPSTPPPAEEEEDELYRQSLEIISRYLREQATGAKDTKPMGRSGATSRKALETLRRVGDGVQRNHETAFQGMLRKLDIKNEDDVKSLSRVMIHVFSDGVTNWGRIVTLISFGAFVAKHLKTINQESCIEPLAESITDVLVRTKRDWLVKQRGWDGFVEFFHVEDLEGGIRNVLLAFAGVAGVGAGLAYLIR
For the next series, the target named is Genome polyprotein (dengue virus type 2, UniProt P29990). Kind of series: Dengue-2 NS5 methyltransferase inhibitors, primary screen, biochemical, confirmation dose response (AID 588689). Type of series: functional.
Series [13] deals with HEK293. Kind of series: cells. The settings on record: Homo sapiens.
The test system of series [14] is HEK293. Kind of series: cells. The following applies: Homo sapiens. This is another data set of the same source.
Series [15] has as its target Luciferin 4-monooxygenase (Photinus pyralis, UniProt P08659). Kind of series: firefly luciferase enzyme inhibitors, dose response, biochemical, luminescence (AID 1891).
The nature of series [16]: Luminescence Cell-Based Dose Confirmation HTS to Identify Inhibitors of Platelet Dense Granule Release. [Related pubchem assays: 1663 (Primary HTS), 1678 (Summary of Project)]. In kind it is functional.
The next series relates to INS1. Kind of series: beta cell apoptosis inhibitors, cytokine rescue, dose response, luminescence, retest (AID 449756).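 Also: cell death triggered by IL-1 beta plus TNF-alpha plus IFN-gamma mixture; protective hits raise ATP signal compared with cytokine alone wells.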 Type of series: functional, cell-based. The following applies: Rattus norvegicus.
The nature of series [17]: control 3'UTR Renilla luciferase suppression, dose response, counter-screen for Shn3 inhibitor project, cell-based, Clone20-Shn3RL, cherry-picked (AID 624133). In kind it is functional.
Series [18] can be described thus: cytotoxicity toward NIH3T3 fibroblasts, dose response, counter-screen, cell-based, ATP luminescence, mouse fibroblasts (AID 2010).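 Also: cells exposed to compound for about 90 hours before reading.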 Type of series: functional.
The nature of series [19]: inhibitors of intracellular T. cruzi replication, confirmation, NIH3T3 host cells, beta-gal luminescence (AID 2044).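 Also: intracellular parasites grown in NIH/3T3 mouse fibroblasts as host cells; luminescent beta-galactosidase reporter signal from transgenic T. cruzi replicating inside host cells; inhibitors lower the luminescence signal.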 Type of series: functional, cell-based.

Sequence of Mitogen-activated protein kinase 10 (P53779 whole entry): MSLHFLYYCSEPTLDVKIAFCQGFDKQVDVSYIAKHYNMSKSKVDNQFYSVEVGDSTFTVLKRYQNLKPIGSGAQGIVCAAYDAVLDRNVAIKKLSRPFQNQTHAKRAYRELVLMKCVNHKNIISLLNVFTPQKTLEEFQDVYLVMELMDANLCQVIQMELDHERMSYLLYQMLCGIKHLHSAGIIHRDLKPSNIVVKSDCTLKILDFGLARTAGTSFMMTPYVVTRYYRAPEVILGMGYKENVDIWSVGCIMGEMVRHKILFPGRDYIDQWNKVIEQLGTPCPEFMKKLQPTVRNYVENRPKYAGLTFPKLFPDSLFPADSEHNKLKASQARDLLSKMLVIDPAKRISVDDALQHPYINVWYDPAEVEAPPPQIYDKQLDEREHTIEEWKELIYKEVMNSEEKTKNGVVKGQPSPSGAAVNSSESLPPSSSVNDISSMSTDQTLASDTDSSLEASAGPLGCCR
Sequence of FAD-linked sulfhydryl oxidase ALR (P55789 whole entry): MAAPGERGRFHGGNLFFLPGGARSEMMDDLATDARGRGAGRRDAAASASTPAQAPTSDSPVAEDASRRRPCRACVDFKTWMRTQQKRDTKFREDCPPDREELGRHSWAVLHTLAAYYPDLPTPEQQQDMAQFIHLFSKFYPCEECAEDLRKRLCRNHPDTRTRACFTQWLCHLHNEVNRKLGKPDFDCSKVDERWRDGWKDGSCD
Sequence of Cytochrome P450 2C19 (P33261 whole entry): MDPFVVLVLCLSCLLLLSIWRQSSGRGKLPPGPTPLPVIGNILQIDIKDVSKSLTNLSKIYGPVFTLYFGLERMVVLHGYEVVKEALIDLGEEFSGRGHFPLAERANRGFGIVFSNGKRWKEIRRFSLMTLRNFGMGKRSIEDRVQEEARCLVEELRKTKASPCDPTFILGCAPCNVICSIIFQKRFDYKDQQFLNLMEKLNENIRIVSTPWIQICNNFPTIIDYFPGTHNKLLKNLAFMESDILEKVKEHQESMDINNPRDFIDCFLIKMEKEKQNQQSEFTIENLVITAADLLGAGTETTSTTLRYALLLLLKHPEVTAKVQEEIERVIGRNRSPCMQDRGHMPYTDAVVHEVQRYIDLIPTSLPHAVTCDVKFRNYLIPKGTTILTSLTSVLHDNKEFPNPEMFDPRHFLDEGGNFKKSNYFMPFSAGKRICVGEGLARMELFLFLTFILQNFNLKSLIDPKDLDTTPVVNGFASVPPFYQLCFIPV

As to `CCn1c(COc2ccccc2)nnc1SCC(=O)Nc1cc(OC)ccc1OC`, the AC50 at Cytochrome P450 1A2 is 25.1 µM (inconclusive); on Cytochrome P450 2C9 [1] it was “inconclusive”.
For the molecule `CC(=O)Nc1nc(C)c(-c2csc(Nc3ccc(O)cc3)n2)s1`, the figures for the AC50 (in [2]; in the series on HEK293 [3]; in [5]) were 0.988 µM (active), 3.85 µM (active) and 0.17 µM (active), respectively. The half-inhibitory concentration (IC50) in [4] is on record as > 93.1 µM (not active).
For the molecule `Cc1ccc(NC(=O)c2sc3ncnc(O)c3c2C)c(C)c1`, the AC50 on Cytochrome P450 1A2 was 14.1 µM (inconclusive); at Cytochrome P450 2C19, 14.1 µM (inconclusive); at Cytochrome P450 2C9 [1] it was “inconclusive”; on Cytochrome P450 3A4, 15.8 µM (inconclusive).
For `CCc1cc(=O)oc2cc(C)cc(OC(=O)c3ccco3)c12`, the IC50 in series [4] is listed as > 93.1 µM (not active).
In the case of `O=C1C2C3C=CC(C3)C2C(=O)N1CN(Cc1ccccc1)CN1C(=O)C2C3C=CC(C3)C2C1=O` (configuration not stated), the AC50 in series [6] was 17.4 µM (active).
Turning to `CCN(CC)c1ccc(NC(=O)c2cnn(CC)c2)cc1`, the IC50 on Large T antigen was 6.73 µM (active). Also, the results for the AC50 entry (at Cytochrome P450 2C9 [1]; in [5]) were “inconclusive” and 0.215 µM (active), respectively.
In the case of `COc1ccc(CCN2C(=O)C=CC2=O)cc1OC`, the AC50 in [6] is 3.1 µM (active).
With `O=[N+]([O-])c1ccc(NC(S)=NCCc2ccccc2)cc1`, the IC50 at Fatty acid synthase [7] was 15 µM (active); at Fatty acid synthase [8], 24.7 µM (inactive).
Take `C[C@@]12CC[C@@H]3c4ccc(O)cc4CC[C@H]3[C@H]1C[C@@H](O)[C@H]2O`: the AC50 is 7.94 µM (inconclusive) on Cytochrome P450 2C19 and “inconclusive” on Cytochrome P450 2C9 [1].
As for `Cc1ccc(S(=O)(=O)NCCC(=O)NCc2ccccc2)cc1`, the concentration at half-maximal activity (AC50) is 25.1 µM (inconclusive) at Cytochrome P450 2D6, 17.8 µM (inconclusive) on Cytochrome P450 1A2, “inconclusive” on Cytochrome P450 2C9 [1] and 25.1 µM (inconclusive) on Cytochrome P450 3A4.
For the molecule `Cc1cc2cc(CCNC(=O)c3ccc(S(=O)(=O)N4CCOCC4)cc3)c(O)nc2cc1C`, on Hexokinase HKDC1, the 50% inhibitory concentration (IC50) is 11.1 µM (active).
Take `COc1cccc(OCC(=O)Nc2ccccc2C(N)=O)c1`: the IC50 in series [4] is reported as 55.2 µM (not active).
Take `Cc1cc(NC(=O)COC(=O)c2[nH]nc3ccccc23)no1`: the IC50 in series [4] is listed as 62.7 µM (not active).
For the molecule `CCN(CC)N=Nc1[nH]nc2nc(C)cc(C)c12`, the AC50 is 12.6 µM (inconclusive) at Cytochrome P450 2D6, 17.8 µM (inconclusive) at Cytochrome P450 2C9 [9] and 2.42 µM (active) in series [6].
Take `CSc1nc(N2CCN(Cc3ccc4c(c3)OCO4)CC2)c2ccccc2n1`: the AC50 in series [10] was > 70 µM (inactive); in series [11], 24.1 µM (active).
Consider `COc1ccc(CNC(=O)/C=C/c2cc([N+](=O)[O-])ccc2OC(F)F)cc1`, for which the results for the 50% inhibitory concentration (IC50) at Fatty acid synthase [7] and at Fatty acid synthase [8] were 1.37 µM (active) and 1.17 µM (active), respectively.
As for `O=C(O)CCC(=O)NCCc1c(/C=C2/C(=O)NC(=S)N(Cc3ccc(F)cc3)C2=O)[nH]c2ccccc12`, the IC50 at Large T antigen was 55.4 µM (active); in series [12], 1.42 µM (active); on Genome polyprotein it was > 100 µM (active).
As for `CCCc1nc2oc3c(OC)ncnc3c2c2c1COC(C)(C)C2`, at Hexokinase HKDC1, the IC50 is 23 µM (inactive).
As for `CC[C@]1(C(=O)OC)[C@H]2C(=O)N(Cc3ccccc3)C(=O)[C@H]2[C@H]2CN=C(SCc3ccc(C(=O)OC)cc3)N21`, the EC50 in the series with HEK293 [13] and with HEK293 [14] was > 59.6 µM (inactive) each time.
In the case of `CC(=O)c1cc(C#N)c(SCc2ccccn2)nc1C`, the IC50 in series [12] is listed as 5.73 µM (not active).
As for `O=C1c2ccccc2C(=O)N1OS(=O)(=O)c1ccc(F)cc1`, the figures for the IC50 on Fatty acid synthase [7], on Fatty acid synthase [8] and on Genome polyprotein were 3.91 µM (active), 5.85 µM (active) and > 100 µM (active), respectively. Also, the EC50 in series [15] is > 112 µM (not active); in [16] it was > 56.1 µM (not active).
For the molecule `CCCc1nc2c(c(=O)c3ccccc3n2C)c(=O)n1-c1ccc(F)cc1`, at Hexokinase HKDC1, the IC50 was 6.43 µM (active).
For `O=C(CCCn1c(=O)[nH]c2cc(Cl)ccc2c1=O)NCC1CCCO1` (configuration not stated), the IC50 in [4] is > 31 µM (not active).
On to `COc1ccc(CCNc2cc(N3CCN(C(=O)c4ccccc4OC)CC3)ccc2[N+](=O)[O-])cc1OC`, for which the AC50 in series [10] is 2.98 µM (active); in the series on INS1, 4.67 µM (active); in series [11], 2.63 µM (active); in series [17], 10.5 µM (active).
For `COc1ccc(C(=O)N/C(=C\c2ccc([N+](=O)[O-])cc2)C(=O)NC(CCSC)C(=O)O)cc1` (configuration not stated), the IC50 at Fatty acid synthase [7] was 5.76 µM (active); on Fatty acid synthase [8], 7.76 µM (active).
With `COc1ccc(C2=NN(CN3C(=O)C(=O)c4ccccc43)C(c3cccc([N+](=O)[O-])c3)C2)cc1` (configuration not stated), the IC50 at Fatty acid synthase [7] was 13 µM (active); on Fatty acid synthase [8] it was 12.4 µM (active).
For `CCCCCCCCC/C(=N\O)c1ccccn1`, the EC50 in series [18] was > 30 µM (not active); in [19], 1.97 µM (active). The AC50 in series [6] is 4.09 µM (active).
Consider `CCCCCOC(=O)C1=C(C)NC(=O)NC1c1ccc([N+](=O)[O-])cc1` (configuration not stated), for which the values for the IC50 at Fatty acid synthase [7] and at Fatty acid synthase [8] were 14.9 µM (active) and 9.26 µM (active), respectively.
Take `CN(C)CC1Oc2ccccc2OC1(O)c1ccccc1` (configuration not stated): the AC50 in series [6] is 2.52 µM (active).
